Assay results published in patent US20150218238A1, “TREATING DISEASES BY MODULATING A SPECIFIC ISOFORM OF MKL1” (NOVARTIS FORSCHUNGSSTIFTUNG, ZWEIGNIEDERLASSUNG FRIEDRICH …, priority 2012, published 2015).

Tested on: EcR-293 cells
Assay: MKL1 localization by immunofluorescence after LPA stimulation
Assay type: cell-based
Settings: 50 μm LPA, 20 min
Method: Cells were grown on 4-compartment plastic tissue culture dishes (Greiner Bio-One, Kremsmünster, Austria) and fixed with 100% methanol at −20° C. for 15 min. Anti-MKL1 total mAb hybridoma supernatant was diluted 1:4 in PBS and incubated on the cells for 1.5 h at RT. After washing with PBS, fluorescent secondary antibodies were applied for 1.5 h at RT to visualize the MKL1 staining (1:1000 in PBS). After washing, coverslips were mounted on the cells using ProLong Gold Antifade reagent (life Technologies/Invitrogen).
Oleoyl-α-lysophosphatidic acid (LPA) was purchased from Sigma-Aldrich (Buchs, Switzerland) and stock solutions were prepared in 1% BSA (Sigma-Aldrich)/PBS. EcR-293 cells stably overexpressing 5′UTR-MKL1_S or 5′UTR-MKL1_L were seeded on plastic dishes precoated with 0.4 mg/ml poly-L-lysine (Sigma-Aldrich) and starved overnight with D-MEM/0.3% FBS. After 18 h starvation, the cells were treated with 50 μm LPA for 0, 5, 20, or 60 min, and subsequently stained with anti-MKL1 total mAb (see immunofluorescence staining). After staining, MKL1 staining of strongly overexpressing cells was classified as predominantly cytosolic (nucleus clearly distinguishable as unstained), equally distributed, or predominantly nuclear (nucleus clearly distinguishable as stained).

## Oleoyl-α-lysophosphatidic acid [LPA]
Starved EcR-293 cells expressing MKL1_L
  cells showing nuclear staining: very few
Starved EcR-293 cells expressing MKL1_S
  cells showing partial or full nuclear MKL1 accumulation: two thirds
